These results are taken from patent publication US8586108B2, “Extracts of Chenopodium ambrosioides L., the compositions comprising said extracts, the preparing process and application thereof” (Tasly Pharmaceutical Group Co., Ltd, priority 2005, dated 2013).

For experiment [1], the system named is gastric ulcers of pyloric ligation type. Put plainly: Effect on gastric ulcers of pyloric ligation type in rats. It is filed as in vivo, Wistar rats. The conditions noted are these: 200 mg/kg i.g. once per day for 3 days; 5 grades by Okabe's method; X ± SD, n = 10. How it is done: Eighty Wistar rats weighing about 160 g were selected in this experiment, male and female in half, and were randomly divided into 8 groups, 10 rats per group. Drugs were continually administered i.g. with the dosage listed in Table 3 for 3 days, once per day, while the model control group was administered i.g. with the same volume of vegetable oil. The animals were anaesthetized by ether after 2 hours of the last administration (the rats were fasted for 48 hours before administration), and their abdomens were shaved and sterilized. A small incision was cut below the xiphoid. Their stomach was gently pulled out, and the stomach was then put back to the abdomen after pyloric ligation, and the incision was sewed up. After operation, the rats were abstained from food and water for 6 hours and executed after anaesthesia. The abdomen was cut open, the cardia was ligated, and the whole stomach was taken out and cut open along the greater curvature of stomach. After rinsing the content of stomach with saline, the stomach was fixed with 1% formaldehyde for 10 min, and then the diameters of the ulcer points were measured using precise calipers. Degree of the ulcer was expressed by total area of all ulcer points of each rat and was classified into 5 grades according to Okabe's method as index of ulcer.

Experiment [2] has as its system acetic acid-cautery type gastric ulcer. Put plainly: Effect on gastric ulcer of rats induced by acetic acid cautery. It is filed as in vivo, Wistar rats. The conditions noted are these: 200 mg/kg i.g. once per day for 13 days; X ± SD, n = 10. How it is done: Eighty Wistar rats weighing between 200-220 g were selected in this experiment, male and female in half, and were randomly divided into 8 groups, 10 rats per group. Drugs were continually administered i.g. with the dosage listed in Table 2 for 13 days, once per day, while the model control group was administered i.g. with the same volume of vegetable oil. The model was established after 2 hours of the third administration. The rats were fasted for 24 hours before model-establishing and anaesthetized by ether, their abdomens were shaved and sterilized. A small incision was cut along the midline of the xiphoid. The stomach was gently pulled out, 10 μL 40% acetic acid was injected underneath the stomach chorion near pyloric gland areas. The stomach was then put back to the abdomen, and the incision was sewed up. Drugs were administered after operation. The rats were fasted for 24 hours after the last administration, and the animals were executed after being anaesthetized by urathane. […] After rinsing the content of stomach with saline, the stomach was fixed with 1% formaldehyde for 10 min, and then the diameters of ulcer points were measured using precise calipers and the ulcer areas were calculated. Ink was injected with a micro-syringe until its level reached the surface of gastric mucous membrane, and the volume of the injected ink was recorded. […]

The structures appear in SMILES notation. Marks after values point to notes of the source that are not given here.

As for `CNC(=C[N+](=O)[O-])NCCSCc1ccc(CN(C)C)o1` [Ranitidine], in experiment [1], the “Index of Ulcer” value is 0.8 ± 0.6. In addition, in experiment [2], the Ulcer area is 8.08 ± 5.72** mm^2 and the “Volumes of injected ink in ulcer region” value turned out to be 2.85 ± 2.63 µL.
